Columns and labels:
[1] = tested on: SJSA-1 (Osteosarcoma); test: combination Emax (second highest fraction inhibited in the dose matrix, 72 h); higher = more inhibition; extreme values may be limits of the assay
Procedure, shortened: (§1)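 After 24 hours at 37°C and 5% CO2 in 1536-well plates, cells in DMEM/F12 or RPMI plus 10% FBS received two-drug dose matrices for 72 hours. Viability came from CellTiter-Glo 2.0 luminescence and was scaled as inhibition, anchored at 0 by vehicle wells and at 1 by blank wells. Combination Emax is taken as the second-highest inhibition in the matrix, and Bliss excess as the observed combination effect less EA + EB − EA·EB, with EA and EB the single-agent effects.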

[2] = tested on: ST486 (Burkitt's Lymphoma); test: as above
Procedure, shortened: as §1

[3] = tested on: MN-60 (B-Lymphoblastic Leukemia); test: as above
Procedure, shortened: as §1

[4] = tested on: NCI-H929 (Plasma Cell Myeloma); test: as above
Procedure, shortened: as §1

[5] = tested on: COR-L279 (Small Cell Lung Carcinoma); test: as above
Procedure, shortened: as §1

[6] = tested on: T-T (Esophageal Squamous Cell Carcinoma); test: as above
Procedure, shortened: as §1

[7] = tested on: KU812 (Chronic Myelogenous Leukemia); test: as above
Procedure, shortened: as §1

[8] = tested on: NCCIT (Other Solid Carcinomas); test: as above
Procedure, shortened: as §1

[9] = tested on: VMRC-RCZ (Kidney Carcinoma); test: as above
Procedure, shortened: as §1

[10] = tested on: OCI-AML3 (Acute Myeloid Leukemia); test: as above
Procedure, shortened: as §1

[11] = tested on: CW-2 (Colorectal Carcinoma); test: as above
Procedure, shortened: as §1

[12] = tested on: SK-GT-4 (Esophageal Adenocarcinoma); test: as above
Procedure, shortened: as §1

[13] = tested on: NCI-H520 (Squamous Cell Lung Carcinoma); test: as above
Procedure, shortened: as §1

[14] = tested on: KYSE-270 (Esophageal Squamous Cell Carcinoma); test: as above
Procedure, shortened: as §1

[15] = tested on: DMS-114 (Small Cell Lung Carcinoma); test: as above
Procedure, shortened: as §1

[16] = tested on: MOG-G-CCM (Low Grade Glioma); test: as above
Procedure, shortened: as §1

[17] = tested on: NCI-H2731 (Mesothelioma); test: as above
Procedure, shortened: as §1

[18] = tested on: NCI-H3122 (Lung Adenocarcinoma); test: as above
Procedure, shortened: as §1

[19] = tested on: M059J (Glioblastoma); test: as above
Procedure, shortened: as §1

[20] = tested on: NCI-H526 (Small Cell Lung Carcinoma); test: as above
Procedure, shortened: as §1

[21] = tested on: SJSA-1 (Osteosarcoma); test: Bliss excess, mean over the matrix (fraction); higher = more synergy
Procedure, shortened: as §1

[22] = tested on: ST486 (Burkitt's Lymphoma); test: as above
Procedure, shortened: as §1

[23] = tested on: MN-60 (B-Lymphoblastic Leukemia); test: as above
Procedure, shortened: as §1

[24] = tested on: NCI-H929 (Plasma Cell Myeloma); test: as above
Procedure, shortened: as §1

[25] = tested on: T-T (Esophageal Squamous Cell Carcinoma); test: as above
Procedure, shortened: as §1

[26] = tested on: KU812 (Chronic Myelogenous Leukemia); test: as above
Procedure, shortened: as §1

[27] = tested on: NCCIT (Other Solid Carcinomas); test: as above
Procedure, shortened: as §1

[28] = tested on: VMRC-RCZ (Kidney Carcinoma); test: as above
Procedure, shortened: as §1

[29] = tested on: OCI-AML3 (Acute Myeloid Leukemia); test: as above
Procedure, shortened: as §1

[30] = tested on: CW-2 (Colorectal Carcinoma); test: as above
Procedure, shortened: as §1

[31] = tested on: SK-GT-4 (Esophageal Adenocarcinoma); test: as above
Procedure, shortened: as §1

[32] = tested on: NCI-H520 (Squamous Cell Lung Carcinoma); test: as above
Procedure, shortened: as §1

[33] = tested on: KYSE-270 (Esophageal Squamous Cell Carcinoma); test: as above
Procedure, shortened: as §1

[34] = tested on: DMS-114 (Small Cell Lung Carcinoma); test: as above
Procedure, shortened: as §1

[35] = tested on: MOG-G-CCM (Low Grade Glioma); test: as above
Procedure, shortened: as §1

[36] = tested on: NCI-H2731 (Mesothelioma); test: as above
Procedure, shortened: as §1

[37] = tested on: NCI-H3122 (Lung Adenocarcinoma); test: as above
Procedure, shortened: as §1

[38] = tested on: M059J (Glioblastoma); test: as above
Procedure, shortened: as §1

[39] = tested on: NCI-H526 (Small Cell Lung Carcinoma); test: as above
Procedure, shortened: as §1

[40] = tested on: 8505C (Thyroid Gland Carcinoma); test: combination Emax (second highest fraction inhibited in the dose matrix, 72 h); higher = more inhibition; extreme values may be limits of the assay
Procedure, shortened: as §1

[41] = tested on: SU-DHL-5 (B-Cell Non-Hodgkin's Lymphoma); test: as above
Procedure, shortened: as §1

[42] = tested on: HCC1187 (Breast Carcinoma); test: as above
Procedure, shortened: as §1

[43] = tested on: JHH-4 (Hepatocellular Carcinoma); test: as above
Procedure, shortened: as §1

[44] = tested on: IM-95 (Gastric Carcinoma); test: as above
Procedure, shortened: as §1

[45] = tested on: SNU-398 (Hepatocellular Carcinoma); test: as above
Procedure, shortened: as §1

[46] = tested on: CHSA8926 (Chondrosarcoma); test: as above
Procedure, shortened: as §1

[47] = tested on: KY821 (Acute Myeloid Leukemia); test: as above
Procedure, shortened: as §1

[48] = tested on: SK-GT-2 (Gastric Carcinoma); test: as above
Procedure, shortened: as §1

[49] = tested on: PC-3 (Prostate Carcinoma); test: as above
Procedure, shortened: as §1

[50] = tested on: NCI-H661 (Non-Small Cell Lung Carcinoma); test: as above
Procedure, shortened: as §1

[51] = tested on: H9 (T-Cell Non-Hodgkin's Lymphoma); test: as above
Procedure, shortened: as §1

[52] = tested on: RPMI-8226 (Plasma Cell Myeloma); test: as above
Procedure, shortened: as §1

[53] = tested on: KMS-12-BM (Plasma Cell Myeloma); test: as above
Procedure, shortened: as §1

[54] = tested on: MOLM-13 (Acute Myeloid Leukemia); test: as above
Procedure, shortened: as §1

[55] = tested on: ESO51 (Esophageal Adenocarcinoma); test: as above
Procedure, shortened: as §1

[56] = tested on: G-361 (Melanoma); test: as above
Procedure, shortened: as §1

[57] = tested on: DAN-G (Pancreatic Carcinoma); test: as above
Procedure, shortened: as §1

[58] = tested on: RD (Rhabdomyosarcoma); test: as above
Procedure, shortened: as §1

[59] = tested on: SUP-B15 (B-Lymphoblastic Leukemia); test: as above
Procedure, shortened: as §1

[60] = tested on: 8505C (Thyroid Gland Carcinoma); test: Bliss excess, mean over the matrix (fraction); higher = more synergy
Procedure, shortened: as §1

[61] = tested on: SU-DHL-5 (B-Cell Non-Hodgkin's Lymphoma); test: as above
Procedure, shortened: as §1

[62] = tested on: HCC1187 (Breast Carcinoma); test: as above
Procedure, shortened: as §1

[63] = tested on: JHH-4 (Hepatocellular Carcinoma); test: as above
Procedure, shortened: as §1

[64] = tested on: IM-95 (Gastric Carcinoma); test: as above
Procedure, shortened: as §1

[65] = tested on: SNU-398 (Hepatocellular Carcinoma); test: as above
Procedure, shortened: as §1

[66] = tested on: CHSA8926 (Chondrosarcoma); test: as above
Procedure, shortened: as §1

[67] = tested on: KY821 (Acute Myeloid Leukemia); test: as above
Procedure, shortened: as §1

[68] = tested on: SK-GT-2 (Gastric Carcinoma); test: as above
Procedure, shortened: as §1

[69] = tested on: PC-3 (Prostate Carcinoma); test: as above
Procedure, shortened: as §1

[70] = tested on: NCI-H661 (Non-Small Cell Lung Carcinoma); test: as above
Procedure, shortened: as §1

[71] = tested on: H9 (T-Cell Non-Hodgkin's Lymphoma); test: as above
Procedure, shortened: as §1

[72] = tested on: RPMI-8226 (Plasma Cell Myeloma); test: as above
Procedure, shortened: as §1

[73] = tested on: KMS-12-BM (Plasma Cell Myeloma); test: as above
Procedure, shortened: as §1

[74] = tested on: MOLM-13 (Acute Myeloid Leukemia); test: as above
Procedure, shortened: as §1

[75] = tested on: ESO51 (Esophageal Adenocarcinoma); test: as above
Procedure, shortened: as §1

[76] = tested on: G-361 (Melanoma); test: as above
Procedure, shortened: as §1

[77] = tested on: DAN-G (Pancreatic Carcinoma); test: as above
Procedure, shortened: as §1

[78] = tested on: RD (Rhabdomyosarcoma); test: as above
Procedure, shortened: as §1

[79] = tested on: SUP-B15 (B-Lymphoblastic Leukemia); test: as above
Procedure, shortened: as §1
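For Bliss excess, mean over the matrix in this document: after 72 h of two-drug dosing.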

N#Cc1cnc(Nc2cc(NC[C@H]3CNCCO3)c(C(F)(F)F)cn2)cn1 [SRA737] + Nc1ccn([C@@H]2O[C@H](CO)[C@@H](O)C2(F)F)c(=O)n1 [Gemcitabine] (first compound max 10 µM, 7x7, partner max 0.3 µM)
combination Emax [1]: 0.681
combination Emax [2]: 0.968
combination Emax [3]: 0.745
combination Emax [4]: 0.922
combination Emax [5]: 0.986
combination Emax [6]: 0.737
combination Emax [7]: 0.813
combination Emax [8]: 0.816
combination Emax [9]: 0.518
combination Emax [10]: 0.93
combination Emax [11]: 0.623
combination Emax [12]: 0.491
combination Emax [13]: 0.892
combination Emax [14]: 0.991
combination Emax [15]: 0.715
combination Emax [16]: 0.857
combination Emax [17]: 0.515
combination Emax [18]: 0.826
combination Emax [19]: 0.794
combination Emax [20]: 0.942
Bliss excess [21]: -0.0857
Bliss excess [22]: -0.006
Bliss excess [23]: -0.0116
Bliss excess [24]: 0.0643
Bliss excess [25]: 0.144
Bliss excess [26]: 0.0421
Bliss excess [27]: 0.0492
Bliss excess [28]: 0.0299
Bliss excess [29]: -0.0422
Bliss excess [30]: 0.0386
Bliss excess [31]: 0.0313
Bliss excess [32]: 0.0706
Bliss excess [33]: 0.0675
Bliss excess [34]: 0.087
Bliss excess [35]: 0.0991
Bliss excess [36]: 0.0907
Bliss excess [37]: 0.0479
Bliss excess [38]: 0.0426
Bliss excess [39]: 0.0912

CC(=O)c1c(C)c2cnc(Nc3ccc(N4CCNCC4)cn3)nc2n(C2CCCC2)c1=O [Palbociclib] + CN(CC[C@H](CSC1=CC=CC=C1)NC2=C(C=C(C=C2)S(=O)(=O)NC(=O)C3=CC=C(C=C3)N4CCC(CC4)[C@H](C5=CC=CC=C5C6=CC=C(C=C6)Cl)O)S(=O)(=O)C(F)(F)F)CCO [AZD4320] (first compound max 10 µM, 7x7, partner max 1 µM)
combination Emax [40]: 0.0974
combination Emax [41]: 1
combination Emax [42]: 0.239
combination Emax [43]: 0.703
combination Emax [44]: 0.471
combination Emax [45]: 0.308
combination Emax [46]: 0.741
combination Emax [47]: 1
combination Emax [48]: 0.531
combination Emax [49]: 0.159
combination Emax [50]: 0.107
combination Emax [51]: 0.983
combination Emax [52]: 0.95
combination Emax [53]: 1
combination Emax [54]: 1
combination Emax [55]: 0.15
combination Emax [56]: 0.598
combination Emax [57]: 0.288
combination Emax [58]: 0.875
combination Emax [59]: 1
Bliss excess [60]: -0.0924
Bliss excess [61]: -0.0381
Bliss excess [62]: -0.0429
Bliss excess [63]: -0.0051
Bliss excess [64]: -0.133
Bliss excess [65]: -0.0484
Bliss excess [66]: -0.0753
Bliss excess [67]: -0.0069
Bliss excess [68]: -0.0151
Bliss excess [69]: -0.0472
Bliss excess [70]: -0.0643
Bliss excess [71]: -0.0114
Bliss excess [72]: -0.0531
Bliss excess [73]: 0.0159
Bliss excess [74]: -0.0259
Bliss excess [75]: -0.0853
Bliss excess [76]: -0.0222
Bliss excess [77]: -0.0408
Bliss excess [78]: 0.0323
Bliss excess [79]: -0.0515

From the supplement of paper PMC11061612
